From patent US20190167771A1, “CONTROL ANGIOGENESIS BY REGULATING PHOSPHORYLATION OF SERYL-tRNA SYNTHETASE (SerRS)” (The Scripps Research Institute, priority 2016, published 2019)

Test system: SIRT2
Assay: Co-immunoprecipitation of SerRS with SIRT2 in HEK293 cells
Format: cell-based, human
Details: V5-tagged SIRT2 and Flag-tagged SerRS co-transfected
Method: The cytosolic fractions (Cy), nuclear fractions (Nu), and the whole cell lysates (WCL) were examined by immunoblot with antibodies against SerRS, nuclear protein Lamin A/C, and cytosolic protein α-tubulin. In FIG. 8B, HEK293 cells were transfected with Flag-tagged SerRS^WT, SerRS^S101A/S241A, or SerRS^S101D/S241D and subjected to cell fractionation and IB with anti-Flag, anti-Lamin A/C, and anti-α-tubulin antibodies. In FIG. 8C, HEK293 cells were cultured under hypoxia for 6 hours and 12 hours. Cells were then lysed and subjected to IP with anti-SerRS antibody and IB with both anti-SerRS and anti-SIRT2 antibodies. In FIG. 8D, HEK293 cells were co-transfected with V5-tagged SIRT2 and Flag-tagged wild type or mutant SerRS. 24 hours post-transfection, cell lysates were subjected to IP with anti-Flag antibody and IB with anti-V5 antibody.
Cells were resuspended with lysis buffer (20 mM Tris-HCl (pH 7.5), 150 mM NaCl, 1 mM of EDTA, 1 mM EGTA, 1% Triton X-100, 2.5 mM sodium pyrophosphate, 1 mM beta-glycerophosphate, 1 mM Na3VO4, and protease inhibitor cocktail) on ice. Supernatants were incubated with indicated antibodies and protein-G-conjugated agarose beads (ThermoFisher Scientific) for at least 2 h. […]

Substance	interaction with SIRT2
SerRS^S101A/S241A: phosphorylation-deficient human SerRS double mutant, serine 101 and 241 to alanine, SEQ ID NO: 4 (mouse version in matrigel assay)	as strong as with SerRS^WT
SerRS^S101D/S241D: SerRS with double substitutions of S101 and S241 with aspartic acid, mimics the phosphorylated SerRS	as strong as with SerRS^WT
